Reference: patent publication US8697652B2, “Cosmetic use of at least the natural tetrapeptide Ac-Ser-Asp-Lys-Pro or one of its analogs as a skin restructuring agent” (Centre National de la Recherche Scientifique (CNRS), priority 2004, dated 2014)
Ends that are not written are not given here.

Key:
Assay type in all cases: cell-based
[1] = test system: Dermal Collagen (Type III); assay: Immunolabelling of collagen III in human skin explants
Protocol: (§1) This study was conducted on thirty six human skin explants obtained from breast plastic surgery.
(§2) All the explants were maintained in a state of survival in a culture medium for eight days. AcSDKP at a concentration of 10^−5 M or 10^−8 M in physiological serum was applied to the explants by topical route every day for one week. On days 2, 4, 6 and 8, three explants from each batch (control, +AcSDKP 10^−5 M+ AcSDKP 10^−8 M) were removed and prepared for histological studies. General morphology was examined and an evaluation of the expression of basal keratin (CK14), undifferentiated keratin (CK19), collagen III, collagen IV, fibronectin and glycosaminoglycan without an acid group was performed.

fibronectin = assay: Immunolabelling of fibronectin in human skin explants
Protocol: as §1, §2

[2] = test system: Basal Membrane Collagen (Type IV); assay: Immunolabelling of collagen IV in human skin explants
Protocol: as §1, §2

human skin explants = assay: General morphology (Masson Trichrome) of human skin explants treated topically with AcSDKP
Protocol: as §1, §2
This is seen by an increased number of live cell bases.

Keratin 19 (CK19) = assay: Immunolabelling of keratin 19 in human skin explants
Protocol: as §1, §2

Glycosaminoglycan (GAGs) = assay: P.A.S. Alcian blue staining of GAGs without acid groups in human skin explants
Protocol: as §1, §2
This effect, clearly visible at D6 and D8, is characterised by a PAS positive increase in the number of fibroblasts in the papillary dermis, especially in the band situated along the dermo-epidermal junction and by increased levels of GAGs in these fibroblasts.

Keratin 14 (CK14) = assay: Immunolabelling of keratin 14 in human skin explants
Protocol: as §1, §2

[3] = AcSDKP 10^-5 M compared with 10^-8 M

## Acetyl-Ser-Asp-Lys-Pro (Ac-SDKP) [AcSDKP, natural tetrapeptide isolated from calf foetus bone marrow or obtained by peptide synthesis]
[1]; AcSDKP 10^-5 M, D8
  collagen III expression: very clear overexpression of collagen III in the papillary and reticular dermis
[1]; AcSDKP 10^-5 M, six days of treatment
  collagen III levels: very marked increase in collagen III levels in the papillary dermis along the dermo-epidermal junction
[1]; AcSDKP 10^-8 M, D6
  collagen III in the remainder of the papillary dermis and reticular dermis: more present
[1]; AcSDKP 10^-8 M, D6, compared with 10^-5 M
  collagen III expression along the dermo-epidermal junction: less pronounced
[1]; AcSDKP 10^-8 M, D8
  level of collagen III: increases along the dermo-epidermal junction and forms a thicker collagen band
[1]; summary statement
  expression of collagen III in treated skin (summary): stimulatory effect
fibronectin; [3]
  fibronectin activity: greater activity
fibronectin; area treated with AcSDKP
  fibronectin network: denser and has thicker fibres
fibronectin; treated skin
  fibronectin expression (immunolabelling, summary): overexpression of this protein along a dermo-epidermal junction as well as in the papillary and reticular dermis
[2]; [3]
  increase in collagen IV levels: higher
[2]; AcSDKP 10^-5 M or 10^-8 M, D6 and D8, compared with type III collagen
  increase in collagen IV levels in the basal membrane along the dermo-epidermal junction: less pronounced than that for type III collagen
[2]; summary statement
  expression of collagen IV in treated skin (summary): stimulatory effect
Human skin explants; [3]
  increase in epidermal thickness: greater
Human skin explants; AcSDKP 10^-5 M or 10^-8 M, topical daily, as of D6 of treatment
  epidermal structure (general morphology): stimulation of the epidermal structure
Human skin explants; conclusion of explant study
  overall effect on epidermis and dermis (conclusion): restructuring of the epidermis and dermis
Keratin 19 (CK19); [3]
  CK19 effect: less marked effect
Keratin 19 (CK19); AcSDKP 10^-5 M or 10^-8 M, as of D6 of treatment
  CK19 expression (immunolabelling): overexpression of the skin's dermal attachments
Keratin 19 (CK19); summary statement
  production of CK19 in treated skin (summary): stimulates the production
Glycosaminoglycan (GAGs); [3]
  GAG activity: higher level of activity
Glycosaminoglycan (GAGs); AcSDKP 10^-5 M or 10^-8 M, clearly visible at D6 and D8
  levels of GAGs without acid groups: significant increase in the levels of these compounds
Keratin 14 (CK14); [3]
  CK14 restructuring effect: greater
Keratin 14 (CK14); basal and superbasal position, as of D4 of treatment
  CK14 levels (immunolabelling): gradual increase in the levels of this protein
Keratin 14 (CK14); summary statement
  production of CK14 in treated skin (summary): stimulates the production
